Details: not given

Row | Compound | melting point | boiling point | log10 Koa | log10 biodegradation half-life (days) | log10 vapour pressure (mmHg) | ready biodegradability | log10 Henry constant (atm·m³/mol) | log10 Koc (L/kg)
1 | O=C(C=Cc1ccccc1)c1ccccc1O | 90 °C | – | – | – | – | – | – | –
2 | CCCCCCC | -90.6 °C | 98.5 °C | 2.95 | 0.845 | 1.66 | readily biodegradable | – | –
3 | CC1CCCC1C (centres undefined) | – | – | – | 0.602 | 1.67 | – | – | –
4 | c1ccc2nccnc2c1 | 28 °C | 230 °C | – | – | – | – | – | –
5 | N#Cc1ccc2ccccc2n1 | 95 °C | – | – | – | – | – | – | –
6 | N#Cc1cccc(C(F)(F)F)c1 | 14.5 °C | 189 °C | – | – | – | – | – | –
7 | S=C(NC1CCCCC1)NC1CCCCC1 | – | – | – | – | – | not readily biodegradable | – | –
8 | C=CCCCCO | – | – | – | – | – | readily biodegradable | – | –
9 | CC1(O)CCCCCC1 | – | 184 °C | – | – | – | – | – | –
10 | Cc1ccc(S(=O)(=O)F)cc1 | 41.5 °C | – | – | – | – | – | – | –
11 | CCCCCCCCN | 0 °C | 180 °C | – | – | -0.0137 | – | – | –
12 | OC1CCCCC1c1ccccc1 (centres undefined) | – | 228 °C | – | – | -1.44 | – | – | –
13 | Brc1cccc2c1Oc1cccc(Br)c1O2 | 207 °C | – | – | – | -5.95 | – | – | –
14 | OC[C@H]1O[C@@](CO)(O[C@H]2O[C@H](CO)[C@@H](O)[C@H](O)[C@H]2O)[C@@H](O)[C@@H]1O | 186 °C | – | – | – | – | – | – | –
15 | CC1=C2[C@H]3OC(=O)[C@@H](C)[C@@H]3CC[C@@]2(C)C=CC1=O | 175 °C | – | – | – | – | – | – | –
16 | CCCCCCCC(C)C | -74.6 °C | 167 °C | – | – | 0.276 | – | – | –
17 | CCCCC(CC)COC(=O)CCCCCCCCC(=O)OCC(CC)CCCC (centres undefined) | -48 °C | – | – | – | – | – | – | –
18 | Oc1ccc(Nc2ccc3ccccc3c2)cc1 | 140 °C | – | – | – | – | – | – | –
19 | Brc1ccc(Br)cc1 | 87.3 °C | 218 °C | 5.21 | – | -1.24 | not readily biodegradable | – | –
20 | CCCCCCC(=O)c1ccccc1 | 16.4 °C | 283 °C | – | – | – | – | – | –
21 | O=C1c2ccccc2C(=O)N1Cc1ccccc1 | 116 °C | – | – | – | – | – | – | –

Row | Compound | melting point | boiling point | log10 Koa | log10 biodegradation half-life (days) | log10 vapour pressure (mmHg) | ready biodegradability | log10 Henry constant (atm·m³/mol) | log10 Koc (L/kg)
22 | O=C(O)Cc1cccnc1 | 144 °C | – | – | – | – | – | – | –
23 | CN1C[C@@H]2C[C@H](C1)c1cccc(=O)n1C2 | 137 °C | – | – | – | – | – | – | –
24 | CC1=NCCN1 | 107 °C | 196 °C | – | – | – | – | – | –
25 | O=C(CCl)OC(=O)CCl | 46 °C | 203 °C | – | – | -1.43 | – | – | –
26 | CC(C)(C)c1ccc(O)c(O)c1 | 54.3 °C | 285 °C | – | – | – | – | – | –
27 | c1ccc(-n2cccc2)cc1 | 62 °C | 234 °C | – | – | – | – | – | –
28 | Cc1ccc(C)c(Br)c1 | 9 °C | 199 °C | – | – | – | – | – | –
29 | CCCNC | – | 62 °C | – | – | – | – | – | –
30 | C=C/C=C\CC1=C(C)[C@@H](OC(=O)[C@@H]2[C@@H](/C=C(\C)C(=O)OC)C2(C)C)CC1=O | – | – | – | – | -6.4 | – | – | –
31 | CCOC(=O)C(NC(C)=O)C(=O)OCC | 96.3 °C | – | – | – | – | – | – | –
32 | CC(C)COP(=O)(OCC(C)C)OCC(C)C | – | 264 °C | – | – | – | – | – | –
33 | CC(O)CCO (centres undefined) | – | 208 °C | – | – | -1.7 | – | – | –
34 | OC1CCCC1C1CCCC1 (centres undefined) | 20 °C | 236 °C | – | – | – | – | – | –
35 | Oc1ccc(C(F)(F)F)cc1 | 46 °C | – | – | – | – | – | – | –
36 | Cc1ccccc1N.Cl | 215 °C | 242 °C | – | – | – | – | – | –
37 | CCNc1nsc2ccccc12 | 78 °C | – | – | – | – | – | – | –
38 | CC#C[C@]1(O)CC[C@H]2[C@@H]3C[C@H](C)C4=CC(=O)CC[C@]4(C)[C@H]3CC[C@@]21C | 102 °C | – | – | – | – | – | – | –
39 | CC(S)C(=O)NCC(=O)O (centres undefined) | 96 °C | – | – | – | – | – | – | –
40 | CC(C(=O)O)c1ccc(C(=O)c2cccs2)cc1 (centres undefined) | 124 °C | – | – | – | – | – | – | –
41 | COc1ccc(C(c2ccc(OC)cc2)C(Cl)(Cl)Cl)cc1 | 87 °C | 346 °C | – | – | – | – | -6.69 | 4.9
42 | C1CCN2C[C@@H]3C[C@@H](CN4CCCC[C@@H]34)[C@H]2C1 | 30.5 °C | 325 °C | – | – | – | – | – | –

Row | Compound | melting point | boiling point | log10 Koa | log10 biodegradation half-life (days) | log10 vapour pressure (mmHg) | ready biodegradability | log10 Henry constant (atm·m³/mol) | log10 Koc (L/kg)
43 | OCCSCCCCCCCCCCSCCO | 69.5 °C | – | – | – | – | – | – | –
44 | Nc1ccc(S(=O)(=O)c2ccc(NCCO)cc2)cc1 | 131 °C | – | – | – | – | – | – | –
45 | Nc1cccc2c1Cc1ccccc1-2 | 126 °C | – | – | – | – | – | – | –
46 | Cc1cccc2cc3ccc4ccccc4c3cc12 | 118 °C | – | – | – | – | – | – | –
47 | O=C(O)COc1c(F)c(F)c(F)c(F)c1F | 109 °C | – | – | – | – | – | – | –
48 | Cc1nc(C)c(C)nc1C | 85 °C | 190 °C | – | – | – | – | – | –
49 | Ic1cc(I)c(I)c(I)c1 | 148 °C | – | – | – | – | – | – | –
50 | Cc1cccc(C)c1NC(=O)C(C)N (centres undefined) | 256 °C | – | – | – | – | – | – | –
51 | N=CN | 81 °C | – | – | – | – | – | – | –
52 | O=C(O)c1cc(Cl)c(Cl)c(Cl)c1Cl | 194 °C | – | – | – | – | – | – | –
53 | CCCN=C=S | – | 153 °C | – | – | – | – | – | –
54 | CC(C)OC(=O)c1cc(C(=O)OC(C)C)cc([N+](=O)[O-])c1 | 65 °C | – | – | – | – | – | – | –
55 | CCCCCOC(=O)CCCC | -78.8 °C | 204 °C | – | – | – | – | – | –
56 | c1ccc(-c2ccncc2)nc1 | 61.5 °C | 281 °C | – | – | – | – | – | –
57 | Cc1cc(Cl)ccc1N | 30.3 °C | 244 °C | – | – | – | not readily biodegradable | – | –
58 | Cn1c(=O)n(C)c(=O)n(C)c1=O | 176 °C | 274 °C | – | – | – | – | – | –
59 | CON(C)C(=O)Nc1ccc(Oc2ccc3c(c2)OC(C)(OC)CC3(C)C)cc1 (centres undefined) | 102 °C | – | – | – | – | – | – | –
60 | FC1=C(F)C(F)(F)C1(F)F | -60 °C | 5.5 °C | – | – | – | – | – | –
61 | Cc1cc(C(C)(C)c2ccc(O)c(C)c2)ccc1O | 139 °C | – | – | – | – | – | – | –

Same assay, conditions: fish

Row | Compound | log10 biotransformation half-life (days) | log10 BCF
62 | Clc1ccc(-c2cc(Cl)c(Cl)cc2Cl)cc1Cl | 2.19 | –
63 | COP(=S)(OC)Oc1ccc([N+](=O)[O-])c(Cl)c1 | -0.47 | 1.55
64 | S=C(NC1CCCCC1)NC1CCCCC1 | – | 0.64
65 | Brc1ccc(Br)cc1 | 0.31 | 2.21
66 | COc1ccc(C(c2ccc(OC)cc2)C(Cl)(Cl)Cl)cc1 | – | 2.5
67 | Brc1cc(Br)c(Oc2ccc(Br)c(Br)c2)c(Br)c1 | – | 6.29
68 | Cc1cc(Cl)ccc1N | – | 1.54

Source: the OPERA property sets (Mansouri et al. 2018)
